Legend:
[1] = target: Sigma intracellular receptor 2 (Homo sapiens) (UniProt Q5BJF2); details: Compound concentration 10.0 uM
[2] = target: Mu-type opioid receptor (Homo sapiens) (UniProt P35372); details: Compound concentration 10.0 uM
[3] = target: D(2) dopamine receptor (Homo sapiens) (UniProt P14416); details: Compound concentration 10.0 uM
[4] = target: Cholecystokinin receptor type A (Homo sapiens) (UniProt P32238); test: Inhibition of Cholecystokinin CCK1 (CCKA) at 10 µM in the Eurofins-Panlabs radioligand binding assay (Eurofins_assay_218020); details: Compound concentration 10.0 uM
[5] = target: Vasopressin V1a receptor (Homo sapiens) (UniProt P37288); test: Vasopressin V1A Eurofins-Panlabs radioligand binding assay; parameters: ligand concentration 0.01 nM; details: Compound concentration 10.0 uM
[6] = target: D(2) dopamine receptor (Homo sapiens) (UniProt P14416); details: Compound concentration 10.0 uM; remark: listed apart in the source
[7] = target: B1 bradykinin receptor (Homo sapiens) (UniProt P46663); test: Inhibition of Bradykinin B1 at 10 µM in the Eurofins-Panlabs radioligand binding assay (Eurofins_assay_212510); details: Compound concentration 10.0 uM
[8] = target: Alpha-2C adrenergic receptor (Homo sapiens) (UniProt P18825); details: Compound concentration 10.0 uM
[9] = target: Alpha-2B adrenergic receptor (Homo sapiens) (UniProt P18089); details: Compound concentration 10.0 uM
[10] = target: T1, 5-hydroxytryptamine receptor 3A (Homo sapiens) (UniProt P46098); details: Compound concentration 10.0 uM
T1 sequence (whole entry): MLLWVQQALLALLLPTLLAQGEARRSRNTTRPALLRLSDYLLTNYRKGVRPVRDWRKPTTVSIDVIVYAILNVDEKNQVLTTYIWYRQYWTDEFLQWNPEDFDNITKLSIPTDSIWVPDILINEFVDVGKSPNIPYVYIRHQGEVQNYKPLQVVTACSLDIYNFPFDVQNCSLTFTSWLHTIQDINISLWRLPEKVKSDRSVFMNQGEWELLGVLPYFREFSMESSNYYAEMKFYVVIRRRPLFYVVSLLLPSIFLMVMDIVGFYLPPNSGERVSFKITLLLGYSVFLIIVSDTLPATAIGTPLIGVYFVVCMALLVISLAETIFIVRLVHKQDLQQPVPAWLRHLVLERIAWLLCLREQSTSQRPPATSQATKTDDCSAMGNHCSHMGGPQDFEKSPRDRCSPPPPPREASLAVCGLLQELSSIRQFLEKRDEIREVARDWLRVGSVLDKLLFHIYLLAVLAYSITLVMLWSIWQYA

[11] = target: 5-hydroxytryptamine receptor 1B (Homo sapiens) (UniProt P28222); details: Compound concentration 10.0 uM
[12] = target: Histamine H4 receptor (Homo sapiens) (UniProt Q9H3N8); details: Compound concentration 10.0 uM
[13] = target: T2, Muscarinic acetylcholine receptor M1 (Homo sapiens) (UniProt P11229); test: Muscarinic M1 Eurofins-Panlabs radioligand binding assay; details: Compound concentration 10.0 uM
T2 sequence (whole entry): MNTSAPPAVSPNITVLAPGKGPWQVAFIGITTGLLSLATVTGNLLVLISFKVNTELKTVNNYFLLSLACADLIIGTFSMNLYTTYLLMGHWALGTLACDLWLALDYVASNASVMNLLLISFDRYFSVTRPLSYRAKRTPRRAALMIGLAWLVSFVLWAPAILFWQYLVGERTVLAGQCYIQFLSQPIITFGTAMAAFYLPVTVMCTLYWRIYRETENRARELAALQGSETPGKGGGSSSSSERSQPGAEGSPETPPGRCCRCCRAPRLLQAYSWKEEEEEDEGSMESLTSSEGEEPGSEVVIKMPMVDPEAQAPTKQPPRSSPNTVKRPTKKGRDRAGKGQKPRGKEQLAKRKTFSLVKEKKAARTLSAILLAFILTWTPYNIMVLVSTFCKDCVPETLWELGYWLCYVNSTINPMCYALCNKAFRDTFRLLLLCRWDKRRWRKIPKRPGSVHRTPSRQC

[14] = target: Endothelin-1 receptor (Homo sapiens) (UniProt P25101); details: Compound concentration 10.0 uM
[15] = target: T3, GABA-A receptor; anion channel (Rattus norvegicus) (UniProt O09028+P15431+P18506+P18508+P19969+P20236+P23574+P23576+P28471+P28473+P30191+P62813+P63079+P63138+Q91ZM7+Q9ES14); details: Compound concentration 10.0 uM
[16] = target: Type-2 angiotensin II receptor (Homo sapiens) (UniProt P50052); test: Angiotensin AT2 Eurofins-Panlabs radioligand binding assay; assay type: protein assay; details: Compound concentration 10.0 uM
[17] = target: Beta-3 adrenergic receptor (Homo sapiens) (UniProt P13945); details: Compound concentration 10.0 uM
Rattus norvegicus = species: Rattus norvegicus; details: Compound concentration 10.0 uM
[18] = target: D(1A) dopamine receptor (Homo sapiens) (UniProt P21728); details: Compound concentration 10.0 uM
[19] = target: Beta-1 adrenergic receptor (Homo sapiens) (UniProt P08588); details: Compound concentration 10.0 uM
[20] = target: Kappa-type opioid receptor (Homo sapiens) (UniProt P41145); details: Compound concentration 10.0 uM
[21] = target: Glutamate receptor 2 (Homo sapiens) (UniProt P42262); details: Rattus norvegicus; Compound concentration 10.0 uM
[22] = target: T3, GABA-A receptor; anion channel (Rattus norvegicus); test: Inhibition of GABAA, Muscimol, Central at 10 µM in the Eurofins-Panlabs radioligand binding assay (Eurofins_assay_226500); assay type: protein-complex assay; details: Compound concentration 10.0 uM
[23] = target: Glutamate NMDA receptor (Rattus norvegicus) (UniProt P35439+Q00959+Q00960+Q00961+Q62645+Q8VHN2+Q9R1M7); details: Compound concentration 10.0 uM
[24] = target: T2, Muscarinic acetylcholine receptor M1 (Homo sapiens); details: Compound concentration 10.0 uM
[25] = target: D(1A) dopamine receptor (Homo sapiens) (UniProt P21728); details: Compound concentration 10.0 uM; remark: listed apart in the source
D(3) dopamine receptor = D(3) dopamine receptor (Homo sapiens, UniProt P35462); details: Compound concentration 10.0 uM
[26] = target: Adenosine receptor A2a (Homo sapiens) (UniProt P29274); details: Compound concentration 10.0 uM
[27] = target: D(1B) dopamine receptor (Homo sapiens) (UniProt P21918); details: Compound concentration 10.0 uM
Chain of D(1B) dopamine receptor (Homo sapiens) (P21918 whole entry): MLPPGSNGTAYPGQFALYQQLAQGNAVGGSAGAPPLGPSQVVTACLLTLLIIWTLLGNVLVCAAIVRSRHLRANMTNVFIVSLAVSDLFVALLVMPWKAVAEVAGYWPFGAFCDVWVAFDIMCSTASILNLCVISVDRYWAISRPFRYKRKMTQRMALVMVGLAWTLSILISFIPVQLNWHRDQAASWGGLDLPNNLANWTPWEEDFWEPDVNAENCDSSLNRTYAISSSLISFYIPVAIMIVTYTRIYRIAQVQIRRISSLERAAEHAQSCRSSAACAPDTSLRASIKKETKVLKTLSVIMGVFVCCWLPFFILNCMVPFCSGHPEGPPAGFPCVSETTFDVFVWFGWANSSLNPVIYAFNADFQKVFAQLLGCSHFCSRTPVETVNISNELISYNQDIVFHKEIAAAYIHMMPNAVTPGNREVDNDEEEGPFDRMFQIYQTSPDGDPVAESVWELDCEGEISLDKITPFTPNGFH

Chain of D(1A) dopamine receptor (Homo sapiens) (P21728 whole entry): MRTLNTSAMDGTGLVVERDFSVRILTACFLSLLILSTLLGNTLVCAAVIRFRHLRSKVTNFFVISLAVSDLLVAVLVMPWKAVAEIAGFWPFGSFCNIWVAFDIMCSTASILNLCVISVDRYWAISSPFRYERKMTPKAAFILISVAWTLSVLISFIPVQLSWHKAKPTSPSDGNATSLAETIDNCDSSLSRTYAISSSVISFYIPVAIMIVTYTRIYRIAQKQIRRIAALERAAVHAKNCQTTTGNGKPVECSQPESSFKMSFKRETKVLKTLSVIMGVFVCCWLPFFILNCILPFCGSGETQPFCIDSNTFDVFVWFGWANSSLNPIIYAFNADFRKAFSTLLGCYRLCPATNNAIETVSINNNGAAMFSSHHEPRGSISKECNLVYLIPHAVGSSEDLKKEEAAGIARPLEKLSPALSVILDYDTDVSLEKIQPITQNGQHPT
Chain of D(2) dopamine receptor (Homo sapiens) (P14416 whole entry): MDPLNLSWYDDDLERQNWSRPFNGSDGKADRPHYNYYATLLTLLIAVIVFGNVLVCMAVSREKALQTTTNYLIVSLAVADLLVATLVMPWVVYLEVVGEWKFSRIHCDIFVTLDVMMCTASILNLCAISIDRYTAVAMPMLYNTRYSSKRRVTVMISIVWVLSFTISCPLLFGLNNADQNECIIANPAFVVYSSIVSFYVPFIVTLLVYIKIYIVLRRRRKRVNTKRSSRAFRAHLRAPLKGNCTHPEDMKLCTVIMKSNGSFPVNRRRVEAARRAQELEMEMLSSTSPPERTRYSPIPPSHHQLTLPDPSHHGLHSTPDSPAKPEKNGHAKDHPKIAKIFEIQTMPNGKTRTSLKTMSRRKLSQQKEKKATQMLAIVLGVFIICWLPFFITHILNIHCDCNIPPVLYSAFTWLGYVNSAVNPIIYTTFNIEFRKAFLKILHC
Chain of Mu-type opioid receptor (Homo sapiens) (P35372 whole entry): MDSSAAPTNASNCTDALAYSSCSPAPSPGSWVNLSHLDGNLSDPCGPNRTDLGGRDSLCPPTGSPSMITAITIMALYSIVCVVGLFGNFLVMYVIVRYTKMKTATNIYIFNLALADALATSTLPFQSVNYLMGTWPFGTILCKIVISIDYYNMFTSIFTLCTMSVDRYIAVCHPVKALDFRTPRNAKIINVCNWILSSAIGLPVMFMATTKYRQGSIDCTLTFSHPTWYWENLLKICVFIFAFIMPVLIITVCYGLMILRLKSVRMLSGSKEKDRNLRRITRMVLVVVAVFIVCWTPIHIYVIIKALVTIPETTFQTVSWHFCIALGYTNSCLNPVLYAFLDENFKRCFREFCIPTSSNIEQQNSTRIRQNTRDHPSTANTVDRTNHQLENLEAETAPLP
Chain of Alpha-2B adrenergic receptor (Homo sapiens) (P18089 whole entry): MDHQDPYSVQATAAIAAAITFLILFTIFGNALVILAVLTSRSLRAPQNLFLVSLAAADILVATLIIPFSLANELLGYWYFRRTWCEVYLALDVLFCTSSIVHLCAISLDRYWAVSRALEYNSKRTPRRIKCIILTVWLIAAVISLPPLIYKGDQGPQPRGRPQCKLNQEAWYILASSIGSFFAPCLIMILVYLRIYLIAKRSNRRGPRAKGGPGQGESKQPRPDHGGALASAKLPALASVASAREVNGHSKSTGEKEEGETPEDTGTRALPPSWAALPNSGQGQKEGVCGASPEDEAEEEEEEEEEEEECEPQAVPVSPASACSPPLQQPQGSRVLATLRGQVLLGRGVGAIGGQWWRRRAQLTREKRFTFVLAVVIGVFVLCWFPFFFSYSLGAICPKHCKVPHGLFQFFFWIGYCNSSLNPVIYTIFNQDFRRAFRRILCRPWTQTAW
Chain of D(3) dopamine receptor (P35462 whole entry): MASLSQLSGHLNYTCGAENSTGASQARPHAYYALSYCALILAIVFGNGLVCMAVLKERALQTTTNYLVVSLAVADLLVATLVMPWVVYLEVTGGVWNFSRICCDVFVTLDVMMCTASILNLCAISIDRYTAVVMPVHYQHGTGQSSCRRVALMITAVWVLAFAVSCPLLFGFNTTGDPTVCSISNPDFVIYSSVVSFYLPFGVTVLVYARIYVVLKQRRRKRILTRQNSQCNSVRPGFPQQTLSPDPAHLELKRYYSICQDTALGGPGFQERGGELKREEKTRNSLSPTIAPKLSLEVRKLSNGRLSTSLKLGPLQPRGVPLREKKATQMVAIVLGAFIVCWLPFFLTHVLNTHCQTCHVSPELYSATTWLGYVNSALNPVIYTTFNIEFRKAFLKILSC
Chain of Type-2 angiotensin II receptor (Homo sapiens) (P50052 whole entry): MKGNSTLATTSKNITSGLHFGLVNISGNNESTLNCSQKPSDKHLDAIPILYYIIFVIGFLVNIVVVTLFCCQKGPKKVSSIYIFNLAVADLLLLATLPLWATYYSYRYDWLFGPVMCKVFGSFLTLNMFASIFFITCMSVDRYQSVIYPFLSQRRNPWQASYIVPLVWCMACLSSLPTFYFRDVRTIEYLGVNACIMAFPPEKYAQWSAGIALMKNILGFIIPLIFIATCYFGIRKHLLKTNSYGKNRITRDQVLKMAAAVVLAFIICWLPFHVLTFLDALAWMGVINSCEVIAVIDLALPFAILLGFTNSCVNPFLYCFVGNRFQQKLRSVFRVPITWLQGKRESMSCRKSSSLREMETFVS
Chain of Glutamate receptor 2 (Homo sapiens) (P42262 whole entry): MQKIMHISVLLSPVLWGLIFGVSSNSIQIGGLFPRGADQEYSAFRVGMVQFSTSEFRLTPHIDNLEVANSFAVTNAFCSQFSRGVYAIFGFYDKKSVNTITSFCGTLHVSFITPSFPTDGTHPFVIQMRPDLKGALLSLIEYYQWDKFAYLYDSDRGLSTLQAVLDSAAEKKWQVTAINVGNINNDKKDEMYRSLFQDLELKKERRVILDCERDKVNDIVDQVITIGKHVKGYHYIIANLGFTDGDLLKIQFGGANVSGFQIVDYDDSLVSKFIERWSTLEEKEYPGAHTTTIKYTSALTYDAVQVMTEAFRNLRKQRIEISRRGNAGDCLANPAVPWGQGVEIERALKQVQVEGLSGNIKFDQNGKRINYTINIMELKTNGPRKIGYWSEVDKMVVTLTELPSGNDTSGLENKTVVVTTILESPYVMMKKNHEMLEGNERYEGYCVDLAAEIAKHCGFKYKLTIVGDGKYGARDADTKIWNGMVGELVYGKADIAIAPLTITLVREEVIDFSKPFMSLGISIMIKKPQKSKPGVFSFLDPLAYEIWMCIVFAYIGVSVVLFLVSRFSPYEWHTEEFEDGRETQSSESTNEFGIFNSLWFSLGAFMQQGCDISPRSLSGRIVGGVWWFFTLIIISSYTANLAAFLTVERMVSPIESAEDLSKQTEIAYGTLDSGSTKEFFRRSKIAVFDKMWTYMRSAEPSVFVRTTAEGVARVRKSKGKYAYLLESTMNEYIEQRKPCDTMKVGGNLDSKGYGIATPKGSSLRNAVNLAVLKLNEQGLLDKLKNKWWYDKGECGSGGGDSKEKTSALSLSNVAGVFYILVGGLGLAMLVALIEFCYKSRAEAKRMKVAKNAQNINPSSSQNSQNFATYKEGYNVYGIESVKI
Chain of 5-hydroxytryptamine receptor 1B (Homo sapiens) (P28222 whole entry): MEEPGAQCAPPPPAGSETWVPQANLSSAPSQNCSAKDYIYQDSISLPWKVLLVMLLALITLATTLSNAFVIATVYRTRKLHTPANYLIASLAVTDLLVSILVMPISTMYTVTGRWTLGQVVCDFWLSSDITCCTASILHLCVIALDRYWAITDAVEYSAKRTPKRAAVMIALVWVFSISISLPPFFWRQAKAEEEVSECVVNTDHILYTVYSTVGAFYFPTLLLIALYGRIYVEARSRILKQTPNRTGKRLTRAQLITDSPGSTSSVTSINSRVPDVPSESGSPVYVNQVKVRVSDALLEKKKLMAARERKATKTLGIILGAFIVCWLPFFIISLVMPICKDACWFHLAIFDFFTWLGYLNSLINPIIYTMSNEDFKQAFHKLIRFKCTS
Chain of Adenosine receptor A2a (Homo sapiens) (P29274 whole entry): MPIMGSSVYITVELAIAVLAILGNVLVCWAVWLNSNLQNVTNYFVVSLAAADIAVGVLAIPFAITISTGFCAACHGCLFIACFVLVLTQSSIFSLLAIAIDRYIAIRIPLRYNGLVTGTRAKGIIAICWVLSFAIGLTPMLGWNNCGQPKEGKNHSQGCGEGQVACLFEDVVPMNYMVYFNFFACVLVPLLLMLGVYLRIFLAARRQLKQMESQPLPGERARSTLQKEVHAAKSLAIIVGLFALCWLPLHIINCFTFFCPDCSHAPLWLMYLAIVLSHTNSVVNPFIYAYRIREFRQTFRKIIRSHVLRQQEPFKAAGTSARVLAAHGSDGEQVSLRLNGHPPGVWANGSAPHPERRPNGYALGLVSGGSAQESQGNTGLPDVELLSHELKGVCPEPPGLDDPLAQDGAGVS
Chain of Sigma intracellular receptor 2 (Homo sapiens) (Q5BJF2 whole entry): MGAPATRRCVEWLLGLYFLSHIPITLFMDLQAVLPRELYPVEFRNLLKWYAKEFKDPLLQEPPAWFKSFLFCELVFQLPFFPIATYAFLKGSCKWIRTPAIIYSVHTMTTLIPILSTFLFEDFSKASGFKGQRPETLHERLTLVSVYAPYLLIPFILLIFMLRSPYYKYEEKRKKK

SMILES	inhibition [1]	inhibition [2]	inhibition [3]	inhibition [4]	inhibition [5]	inhibition [6]	inhibition [7]	inhibition [8]	inhibition [9]	inhibition [10]	inhibition [11]	inhibition [12]	inhibition [13]	inhibition [14]	inhibition [15]	inhibition [16]	inhibition [17]	inhibition (Rattus norvegicus)	inhibition [18]	inhibition [19]	other results
Cc1cc(OC2CCS(=O)(=O)CC2)cc(C)c1-c1cccc(COc2ccc(C(=O)O)c(F)c2)c1	1.49%	-7.84%	8.6%	-9%	-4%	-4%	19%	-4.04%	-0.21%	-5.96%	23.2%	17.4%	-7%	-2%	19.5%	1%	6.71%	7%	-3%	-0.49%	inhibition [20]: 4.04%; inhibition [21]: -3%; inhibition [22]: 8%; inhibition [23]: 7%; inhibition [24]: -1.5%; inhibition [25]: 20.9%; inhibition (D(3) dopamine receptor): 7.34%; inhibition [26]: 10%; inhibition [27]: 17.5%
Cc1cc(OC2CCS(=O)(=O)CC2)cc(C)c1-c1cccc(COc2ccc(CCC(=O)O)c(F)c2)c1	19.6%	1.32%	16.6%	4%	0%	-2%	14%	5.47%	13.1%	6.06%	19.3%	10.8%	-9%	-2%	23.7%	-4%	-5.43%	-4%	24%	14.4%	inhibition [20]: 10.2%; inhibition [21]: 4%; inhibition [22]: 3%; inhibition [23]: 8%; inhibition [24]: 15.8%; inhibition [25]: 13.7%; inhibition (D(3) dopamine receptor): 59.6%; inhibition [26]: 5%; inhibition [27]: 32.2%
